From ChEMBL document CHEMBL1153654, “Synthesis and potential anxiolytic activity of 4-amino-pyrido[2,3-b]indoles” (Bioorg Med Chem Lett, 1993) come the findings set out here.

The target in assay [1] is GABA-A receptor; anion channel. As to the kind of experiment: Displacement of [3H]flunitrazepam from GABA-A central benzodiazepine receptor of mouse brain.
In assay [2] the target is GABA-A receptor; anion channel. The assay is described as follows: Displacement of [35S]TBPS from GABA-A receptor complex at low umolar concentration. The assay is classed as protein-complex assay.
In assay [3] the test system is Rattus norvegicus. The assay is described as follows: Tested for minimum effective dose required to cause motor in coordination in Geller-Seifter model in CFY rats (route of administration is peroral 30 min before testing). It counts as functional. As to conditions: po, read-out: MED.
The test system of assay [4] is GABA-A receptor; anion channel. The assay is described as follows: Displacement of [3H]flunitrazepam from GABA-A central benzodiazepine receptor of mouse brain (insoluble).
Assay [5] deals with GABA-A receptor; anion channel. As to the kind of experiment: Displacement of [35S]TBPS from GABA-A receptor complex at low umolar concentration (insoluble). It counts as protein-complex assay.

On to `CCCOC(=O)c1c(C)nc2c(c1N)c1ccccc1n2C`, for which the half-inhibitory concentration (IC50) in assay [1] is above 100 µM; in assay [2] it was 2.2 µM. Also, the minimal effective dose in assay [3] is 10 mg/kg.
On the same counts, the results for `CCn1c2ccccc2c2c(N)c(C(=O)OC)c(C)nc21` are above 100 µM, 5.9 µM and 5 mg/kg.
Turning to `CN1C(=O)CN=C(c2ccccc2)c2cc(Cl)ccc21` [DIAZEPAM], the minimal effective dose in assay [3] is 2.5 mg/kg.
As to `Cc1nc2c(c(N)c1CO)c1ccccc1n2C`, the concentration for half-maximal inhibition (IC50) in assay [1] and in assay [2] was above 100 µM throughout. Moreover, in assay [3], the minimal effective dose was above 50 mg/kg.
For the compound `COC(=O)c1c(C)nc2c(c1N)c1ccccc1n2C1CCCC1`, the IC50 in assay [1] is above 100 µM; in assay [2], 80 µM. Besides, in assay [3], the minimal effective dose is above 50 mg/kg.
For the compound `CCOC(=O)c1c(C)nc2c(c1N)c1ccccc1n2Cc1ccccc1`, the half-inhibitory concentration (IC50) entry in assay [4] and in assay [5] was “Insoluble” in each case. In addition, in assay [3], the minimal effective dose was above 50 mg/kg.
For `Cc1nc2c(c(N)c1C(=O)O)c1ccccc1n2C`, the half-maximal inhibitory concentration (IC50) in assay [1] and in assay [2] was above 100 µM in each case. For the same compound, in assay [3], the minimal effective dose is above 50 mg/kg.
In the case of `COC(=O)c1c(-c2ccccc2)nc2c(c1N)c1ccccc1n2C`, the half-maximal inhibitory concentration (IC50) is above 30 µM in assay [1] and 11.2 µM in assay [2]. For the same compound, in assay [3], the minimal effective dose was found to be 50 mg/kg.
On the same counts, the results for `COC(=O)c1c(C)nc2c(c1N)c1ccccc1n2C` are above 100 µM, 14.6 µM and 10 mg/kg.
As to `C=CCOC(=O)c1c(C)nc2c(c1N)c1ccccc1n2C`, the 50% inhibitory concentration (IC50) is above 100 µM in assay [1] and 3.8 µM in assay [2]. Moreover, the minimal effective dose in assay [3] stood at 20 mg/kg.
On the same counts, the results for `COP(=O)(OC)c1c(C)nc2c(c1N)c1ccccc1n2C` are above 30 µM, above 30 µM and above 20 mg/kg.
On the same counts, the results for `CNc1c(C(=O)OC)c(C)nc2c1c1ccccc1n2C` are 82.3 µM, 17.1 µM and 20 mg/kg.
On the same counts, the results for `Cc1nc2c(c(N)c1C(=O)OCc1ccccc1)c1ccccc1n2C` are above 30 µM, above 30 µM and above 50 mg/kg.
With `Cc1[nH]c2nc3ccccc3c-2c(N)c1C(N)=O`, the half-inhibitory concentration (IC50) in assay [1] and in assay [2] was above 100 µM throughout. For the same compound, the minimal effective dose in assay [3] is above 50 mg/kg.
On to `COC(=O)c1c(C)[nH]c2nc3ccccc3c-2c1N`, for which the IC50 result in assay [4] and in assay [5] was “Insoluble” throughout. The minimal effective dose in assay [3] was found to be 5 mg/kg.
As to `COC(=O)c1c(C)nc2c(c1N)c1ccccc1n2C(=O)OC`, the results for the IC50 in assay [1] and in assay [2] were above 30 µM and 9.5 µM, respectively. In addition, the minimal effective dose in assay [3] came to 20 mg/kg.
On the same counts, the results for `CCOC(=O)c1c(C)nc2c(c1N)c1ccccc1n2C` are above 100 µM, 4.6 µM and 10 mg/kg.
As to `COC(=O)c1c(C)nc2c(c1N)c1cc(Cl)ccc1n2C`, the half-maximal inhibitory concentration (IC50) result in assay [4] and in assay [5] was “Insoluble” each time. In addition, the minimal effective dose in assay [3] was determined as 50 mg/kg.
